Test results from patent US6737383B1, “Herbicidal oxadiazolidines” (priority 1999, dated 2004).

How the values were obtained:
[1] = test system: bedstraw; test: Test B pre/postemergence bedstraw; assay type: in vivo, Galium aparine; conditions: Preemergence; for Bedstraw plant response rating: scale 0 to 10, 0 is no effect, 10 is complete control
Procedure, shortened: (§1)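 Response is a visual 0-to-10 score relative to untreated plants, where 0 means no effect and 10 means complete control, taken twelve to sixteen days after application. Treatments went onto soil at planting and onto foliage of 1- to 4-leaf plants, using a surfactant-containing non-phytotoxic solvent.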

[2] = test system: surinam grass; test: Test B pre/postemergence surinam grass; assay type: in vivo, Brachiaria decumbens
Procedure, shortened: as §1

[3] = test system: velvetleaf; test: Test B pre/postemergence velvetleaf; assay type: in vivo, Abutilon theophrasti
Procedure, shortened: as §1

[4] = test system: pigweed; test: Test B pre/postemergence pigweed; assay type: in vivo, Amaranthus retroflexus
Procedure, shortened: as §1

[5] = test system: wheat; test: Test B pre/postemergence wheat; assay type: in vivo, Triticum aestivum
Procedure, shortened: as §1

[6] = test system: bamyardgrass; test: Test B flood test barnyardgrass; assay type: in vivo, Echinochloa crus-galli
Procedure, shortened: (§2)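 Flood test on plants grown to the 2-leaf stage; treated plants kept in greenhouse twelve to sixteen days, then visually rated against controls on a 0 (no effect) to 10 (complete control) scale.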

[7] = test system: crabgrass; test: Test B pre/postemergence crabgrass; assay type: in vivo, Digitaria sanguinalis
Procedure, shortened: as §1

[8] = test system: duck salad; test: Test B flood test duck salad; assay type: in vivo, Heteranthera limosa
Procedure, shortened: as §2

[9] = test system: rape; test: Test B pre/postemergence rape; assay type: in vivo, Brassica napus
Procedure, shortened: as §1

[10] = test system: blackgrass; test: Test B pre/postemergence blackgrass; assay type: in vivo, Alopecurus myosuroides
Procedure, shortened: as §1

[11] = test system: morningglory; test: Test B pre/postemergence morningglory; assay type: in vivo, Ipomoea hederacea
Procedure, shortened: as §1

[12] = test system: giant foxtail; test: Test B pre/postemergence giant foxtail; assay type: in vivo, Setaria faberii
Procedure, shortened: as §1

[13] = test system: sugar beet; test: Test B pre/postemergence sugar beet; assay type: in vivo, Beta vulgaris
Procedure, shortened: as §1

[14] = test system: cocklebur; test: Test B pre/postemergence cocklebur; assay type: in vivo, Xanthium strumarium
Procedure, shortened: as §1

[15] = test system: rice; test: Test B flood test rice; assay type: in vivo, Oryza sativa
Procedure, shortened: as §2

[16] = test system: corn; test: Test B pre/postemergence corn; assay type: in vivo, Zea mays
Procedure, shortened: as §1

[17] = test system: smallflower flatsedge; test: Test B flood test smallflower flatsedge; assay type: in vivo, Cyperus difformis
Procedure, shortened: as §2

[18] = test system: purple nutsedge; test: Test B pre/postemergence purple nutsedge; assay type: in vivo, Cyperus rotundus
Procedure, shortened: as §1

[19] = test system: soybean; test: Test B pre/postemergence soybean; assay type: in vivo, Glycine max
Procedure, shortened: as §1

[20] = test system: wild oat; test: Test B pre/postemergence wild oat; assay type: in vivo, Avena fatua
Procedure, shortened: as §1

[21] = Postemergence, Rate 62 g/ha, scale of 0 to 10, 0 is no effect, 10 is complete control
[22] = Postemergence, Rate 125 g/ha, scale 0 to 10, 0 is no effect, 10 is complete control
[23] = Postemergence, Rate 500 g/ha, scale 0 to 10, 0 is no effect, 10 is complete control
[24] = Preemergence, Rate 62 g/ha, scale of 0 to 10 where 0 is no effect and 10 is complete control
[25] = Preemergence, Rate 125 g/ha, scale 0 to 10, 0 is no effect, 10 is complete control
[26] = Preemergence, Rate 250 g/ha, scale 0 to 10, 0 is no effect, 10 is complete control
[27] = Preemergence, Rate 500 g/ha, scale of 0 to 10 where 0 is no effect and 10 is complete control
[28] = Rate 62 g/ha, flood test species, Pre-emergence, visual evaluation after twelve to sixteen days
[29] = Rate 125 g/ha, under heading Pre-emergence, flood test species, visual evaluation after twelve to sixteen days
[30] = Rate 250 g/ha, Pre-emergence (flood test species), scale 0 to 10, 0 is no effect, 10 is complete control
[31] = Rate 500 g/ha, Pre-emergence section of Table B, 0 to 10 scale (0 no effect, 10 complete control)
[32] = Postemergence, Rate 250 g/ha, scale 0 to 10

CCc1nc(C)c(Cn2c(=O)on(C(=O)N(c3ccc(Cl)cc3)C(C)C)c2=O)s1 [Compound 499]
3: Morningglory plant response rating [11, 21] | Morningglory plant response rating [11, 22] | Plant response rating, Giant foxtail [12, 24] | Plant response rating, Soybean [19, 23]
5: Giant foxtail plant response rating [12, 25]
4: Plant response rating, Crabgrass [7, 24] | Plant response rating, Blackgrass [10, 23] | Plant response rating, Cocklebur [14, 23] | Cocklebur plant response rating [14, 27]
6: Crabgrass plant response rating [7, 25] | Plant response rating, Morningglory [11, 23]
2: B. signalgrass plant response rating ([2]; Preemergence, Rate 500 g/ha, scale 0 to 10, 0 is no effect, 10 is complete control) | Blackgrass plant response rating [10, 32] | Plant response rating, Giant foxtail [12, 23] | Cocklebur plant response rating [14, 32]
1: Blackgrass plant response rating [10, 27] | Soybean plant response rating [19, 22]
8: Crabgrass plant response rating [7, 27]
10: Giant foxtail plant response rating [12, 27]
0: Plant response rating, Bedstraw ([1]; Rate 62 g/ha, scale of 0 to 10 where 0 is no effect and 10 is complete control) | Bedstraw plant response rating ([1]; Rate 125 g/ha) | Bedstraw plant response rating ([1]; Rate 250 g/ha) | B. signalgrass plant response rating [2, 21] | B. signalgrass plant response rating [2, 22] | B. signalgrass plant response rating ([2]; Postemergence, Rate 250 g/ha, scale 0 to 10, 0 no effect, 10 complete control) | Plant response rating, B. signalgrass [2, 23] | Plant response rating, B. signalgrass [2, 24] | B. signalgrass plant response rating [2, 25] | B. signalgrass plant response rating [2, 26] | Velvetleaf plant response rating [3, 21] | Velvetleaf plant response rating [3, 22] | Plant response rating, Velvetleaf [3, 23] | Plant response rating, Velvetleaf [3, 24] | Velvetleaf plant response rating [3, 25] | Velvetleaf plant response rating [3, 27] | Redroot pigweed plant response rating [4, 21] | Redroot pigweed plant response rating [4, 22] | Plant response rating, Redroot pigweed [4, 23] | Plant response rating, Redroot pigweed [4, 24] | Redroot pigweed plant response rating [4, 25] | Redroot pigweed plant response rating [4, 27] | Wheat plant response rating [5, 21] | Wheat plant response rating [5, 22] | Plant response rating, Wheat [5, 23] | Plant response rating, Wheat [5, 24] | Wheat plant response rating [5, 25] | Wheat plant response rating [5, 27] | Plant response rating, Barnyardgrass (0 to 10 scale, 0 is no effect, 10 is complete control) [6, 28] | Barnyardgrass plant response rating (0 to 10 scale, 0 is no effect, 10 is complete control) [6, 29] | Barnyardgrass plant response rating [6, 30] | Barnyardgrass plant response rating [6, 31] | Crabgrass plant response rating [7, 21] | Crabgrass plant response rating [7, 22] | Crabgrass plant response rating [7, 32] | Plant response rating, Crabgrass [7, 23] | Plant response rating, Ducksalad (0 to 10 scale, 0 is no effect, 10 is complete control) [8, 28] | Ducksalad plant response rating (0 to 10 scale, 0 is no effect, 10 is complete control) [8, 29] | Ducksalad plant response rating [8, 30] | Ducksalad plant response rating [8, 31] | Rape plant response rating [9, 21] | Rape plant response rating [9, 22] | Plant response rating, Rape [9, 23] | Plant response rating, Rape [9, 24] | Rape plant response rating [9, 25] | Rape plant response rating [9, 27] | Blackgrass plant response rating [10, 21] | Blackgrass plant response rating [10, 22] | Plant response rating, Blackgrass [10, 24] | Blackgrass plant response rating [10, 25] | Blackgrass plant response rating [10, 26] | Plant response rating, Morningglory [11, 24] | Morningglory plant response rating [11, 25] | Morningglory plant response rating [11, 27] | Giant foxtail plant response rating [12, 21] | Giant foxtail plant response rating [12, 22] | Sugarbeets plant response rating [13, 21] | Sugarbeets plant response rating [13, 22] | Plant response rating, Sugarbeets [13, 23] | Plant response rating, Sugarbeets [13, 24] | Sugarbeets plant response rating [13, 25] | Sugarbeets plant response rating [13, 27] | Cocklebur plant response rating [14, 21] | Cocklebur plant response rating [14, 22] | Cocklebur plant response rating [14, 25] | Cocklebur plant response rating [14, 26] | Plant response rating, Rice (0 to 10 scale, 0 is no effect, 10 is complete control) [15, 28] | Rice plant response rating (0 to 10 scale, 0 is no effect, 10 is complete control) [15, 29] | Rice plant response rating [15, 30] | Rice plant response rating [15, 31] | Corn plant response rating [16, 21] | Corn plant response rating [16, 22] | Corn plant response rating [16, 32] | Plant response rating, Corn [16, 23] | Plant response rating, Corn [16, 24] | Corn plant response rating [16, 25] | Corn plant response rating [16, 27] | Plant response rating, S. Flatsedge (0 to 10 scale, 0 is no effect, 10 is complete control) [17, 28] | S. Flatsedge plant response rating (0 to 10 scale, 0 is no effect, 10 is complete control) [17, 29] | S. Flatsedge plant response rating [17, 30] | S. Flatsedge plant response rating [17, 31] | Nutsedge plant response rating [18, 21] | Nutsedge plant response rating [18, 22] | Plant response rating, Nutsedge [18, 23] | Nutsedge plant response rating [18, 25] | Nutsedge plant response rating [18, 27] | Soybean plant response rating [19, 21] | Plant response rating, Soybean [19, 24] | Soybean plant response rating [19, 25] | Soybean plant response rating [19, 27] | Wild oats plant response rating [20, 21] | Wild oats plant response rating [20, 22] | Plant response rating, Wild oats [20, 23] | Plant response rating, Wild oats [20, 24] | Wild oats plant response rating [20, 25] | Wild oats plant response rating [20, 27]
